Earlier results, collected in patent US20110246079A1, “INDIVIDUAL 5-FLUOROURACILE DOSE OPTIMIZATION IN FOLFOX TREATMENT” (Centre Regional De Lutte Contre, priority 2008, published 2011).

Key:
[1] = biological target: T1, dihydropyrimidine dehydrogenase (DPD) (Homo sapiens, UniProt Q12882); settings: subject with normal DPD enzymatic activity
T1 construct: This ubiquitous enzyme is a major factor of 5-FU biodisponibility, since in a subject with normal DPD enzymatic activity; endogenous in cells; host or cells: Subject or patient in vivo (enzyme described as ubiquitous)
T1 sequence (Q12882 4-1025): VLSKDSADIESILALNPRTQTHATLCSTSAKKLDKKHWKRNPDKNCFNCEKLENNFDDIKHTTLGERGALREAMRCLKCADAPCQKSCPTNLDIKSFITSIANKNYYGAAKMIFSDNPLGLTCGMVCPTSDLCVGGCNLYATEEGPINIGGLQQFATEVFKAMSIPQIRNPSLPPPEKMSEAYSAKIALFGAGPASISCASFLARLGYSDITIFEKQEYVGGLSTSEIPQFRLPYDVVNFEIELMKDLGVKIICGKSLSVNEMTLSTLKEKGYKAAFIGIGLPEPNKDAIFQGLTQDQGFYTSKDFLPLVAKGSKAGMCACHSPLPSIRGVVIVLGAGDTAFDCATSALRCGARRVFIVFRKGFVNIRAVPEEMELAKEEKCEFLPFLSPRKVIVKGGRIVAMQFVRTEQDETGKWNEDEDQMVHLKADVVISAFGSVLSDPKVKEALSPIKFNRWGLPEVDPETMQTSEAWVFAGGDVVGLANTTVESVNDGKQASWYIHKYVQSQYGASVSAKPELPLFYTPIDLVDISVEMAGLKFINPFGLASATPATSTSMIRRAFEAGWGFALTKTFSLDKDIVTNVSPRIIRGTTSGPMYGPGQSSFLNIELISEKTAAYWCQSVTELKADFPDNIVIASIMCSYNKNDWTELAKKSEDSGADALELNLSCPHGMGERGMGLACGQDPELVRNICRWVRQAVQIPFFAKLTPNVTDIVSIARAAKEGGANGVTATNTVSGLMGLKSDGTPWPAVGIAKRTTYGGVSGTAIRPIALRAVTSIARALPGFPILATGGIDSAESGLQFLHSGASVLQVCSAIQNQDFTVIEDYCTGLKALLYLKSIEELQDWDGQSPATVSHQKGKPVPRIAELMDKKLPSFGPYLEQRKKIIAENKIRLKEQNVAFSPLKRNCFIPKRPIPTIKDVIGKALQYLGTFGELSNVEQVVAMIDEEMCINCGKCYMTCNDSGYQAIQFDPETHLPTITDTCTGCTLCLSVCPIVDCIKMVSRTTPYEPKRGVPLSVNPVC

patients = settings: 5-FU treatment
5-FU metabolism = settings: in vivo

O=c1[nH]cc(F)c(=O)[nH]1 [5-FU, 5-fluorouracile]
time for 5-FU plasmatic levels to reach a plateau (after the beginning of the 5-FU continuous infusion): about 1 hour | half-life in blood (in vivo): very short | administered 5-FU available for / metabolized by the anabolic pathway [1]: 20% | death, treated patients (patients): 0.8% | very early polyvisceral toxicity, patients (patients): 5-8% | severe grade 3-4 toxicity (patients; standard doses): 20-25%

O=C1[O][Pt]2([NH][C@@H]3CCCC[C@H]3[NH]2)[O]C1=O [oxaliplatin]
effect on 5-FU metabolism (5-FU metabolism): inhibits 5-FU metabolism
